According to the supplement of paper PMC11451515:

Key:
SEM cells = test: cell viability relative to DMSO control; higher = less cytotoxic; conditions: 48 h
In short: (§1)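 In 1536-well plates, 5 μl of leukemia cells were seeded per well: 500 cells/well for NOMO1 or SEM and 1000 cells/well for P12-Ichikawa. Each line had first been adapted for at least four passages in each medium. Library compounds in DMSO were pin-dosed at 11 threefold concentrations between 47 μM and 0.79 nM, and CellTiter-Glo One luminescence was read after 48 h at 37°C. Viability is a per-plate percentage relative to DMSO wells, with cell-free wells as background.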

NOMO1 = test: as above; conditions: 48 h
In short: as §1

COc1cc[nH]c2ncc(C(=O)C(=O)N3CCN(C(=O)c4ccccc4)C[C@H]3C)c1-2
cell viability [%]
Conditions | HPLM + 10% dialyzed FBS | RPMI 5 mM glucose + 10% FBS | RPMI 5 mM glucose + 10% dialyzed FBS
NOMO1, 0.000781 µM | 137 | 99.9 | –
NOMO1, 0.00234 µM | 121 | 101 | –
NOMO1, 0.00702 µM | 111 | 101 | –
NOMO1, 0.0211 µM | 105 | 101 | –
NOMO1, 0.0632 µM | 121 | 99 | –
NOMO1, 0.19 µM | 108 | 99.2 | –
NOMO1, 0.569 µM | 106 | 100 | –
NOMO1, 1.71 µM | 108 | 99.1 | –
NOMO1, 5.12 µM | 120 | 107 | –
NOMO1, 15.4 µM | 100 | 105 | –
NOMO1, 46.1 µM | 99.1 | – | –
SEM cells, 0.000781 µM | 89.9 | 115 | 118
SEM cells, 0.00234 µM | 87.6 | 109 | 109
SEM cells, 0.00702 µM | 77.4 | 112 | 129
SEM cells, 0.0211 µM | 90.1 | 116 | 115
SEM cells, 0.0632 µM | 58.5 | 74.2 | 84.4
SEM cells, 0.19 µM | 82.6 | 100 | 102
SEM cells, 0.569 µM | 92 | 100 | 107
SEM cells, 1.71 µM | 96.8 | 103 | 101
SEM cells, 5.12 µM | 88.8 | 113 | 102
SEM cells, 15.4 µM | 94.2 | 99.9 | 103
SEM cells, 46.1 µM | 109 | 96.9 | 106
